# Assay results taken from US7109354B2, “Thiophene amidines, compositions thereof, and methods of treating complement-mediated diseases and conditions” (3-Dimensional Pharmaceuticals, Inc., priority 2002, dated 2006).
# Where a name gives a salt, the structure may show the parent alone.
# Target: T1, Activated human C1s (Homo sapiens, UniProt P09871)
# T1 construct: purchased Calbiochem (La Jolla, Calif.)
# T1 sequence (P09871 438-688 limits assumed): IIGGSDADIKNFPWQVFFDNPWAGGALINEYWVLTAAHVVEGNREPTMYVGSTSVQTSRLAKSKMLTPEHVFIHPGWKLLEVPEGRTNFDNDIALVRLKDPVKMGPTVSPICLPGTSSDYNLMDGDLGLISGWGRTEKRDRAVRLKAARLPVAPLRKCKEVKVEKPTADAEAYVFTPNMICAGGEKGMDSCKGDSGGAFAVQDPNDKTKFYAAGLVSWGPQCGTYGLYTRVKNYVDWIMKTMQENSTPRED
# T1 sequence (P09871 16-437 partner limits assumed): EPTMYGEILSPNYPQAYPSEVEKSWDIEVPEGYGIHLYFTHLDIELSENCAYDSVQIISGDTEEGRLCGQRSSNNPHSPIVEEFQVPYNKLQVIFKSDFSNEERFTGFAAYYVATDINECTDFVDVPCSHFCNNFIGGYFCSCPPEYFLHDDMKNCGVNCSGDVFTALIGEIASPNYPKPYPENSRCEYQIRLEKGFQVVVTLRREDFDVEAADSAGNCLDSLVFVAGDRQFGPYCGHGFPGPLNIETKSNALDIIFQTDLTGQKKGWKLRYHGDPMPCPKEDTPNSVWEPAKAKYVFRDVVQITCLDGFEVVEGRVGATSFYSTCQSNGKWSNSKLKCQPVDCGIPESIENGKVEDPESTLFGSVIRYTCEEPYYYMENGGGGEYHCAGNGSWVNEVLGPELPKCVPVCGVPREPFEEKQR
# Test: In vitro inhibition of C1s (Ki determination, C1s-catalyzed hydrolysis of Z-Gly-Arg-S-Bzl, DTNB readout)
# Format: biochemical
# Conditions: substrate Z-Gly-Arg-S-Bzl 45 μM, DTNB 200 μM, C1s 2.3 nM, pH 7.5, 37° C., absorbance at 405 nm
# Description: Reagents: All buffer salts were obtained from Sigma Chemical Company (St. Louis, Mo.), and were of the highest purity available. DTNB was purchased from Pierce (Rockford, Ill.). Z-Gly-Arg-S-Bzl was purchased from Enzyme Systems Products (Livermore, Calif.). Activated human C1s was purchased from Calbiochem (La Jolla, Calif.).
# Test compounds are prepared as a 10 μM solution in DMSO. Dilutions are prepared in DMSO yielding 7 final concentrations encompassing a 700-fold concentration range.
# Reactions were initiated by the addition of a 10 μL aliquot of the enzyme, and the absorbance increase at 405 nm is continuously recorded for 15 minutes in a Molecular Devices plate reader. Final DMSO concentration was 4.3%. […] The ratio of the velocity (rate of change in absorbance as a function of time) for a sample containing no test compound is divided by the velocity of a sample containing test compound, and is plotted as a function of test compound concentration. The data are fit to a linear regression, and the value of the slope of the line calculated. The inverse of the slope is the experimentally determined Ki value.
row,Compound,Ki [nM]
1,"CSc1sc(C(=N)N)cc1S(=O)(=O)c1cccc(-c2cccnc2)c1 [Example 70, 5-Methylsulfanyt-4-(3-pyridin-3-yl-benzenesulfonyl)-thiophene-2-carboxamidine]",6 to 23
2,"CSc1sc(C(=N)N)cc1S(=O)(=O)c1cccc(-c2cccc(CO)c2)c1 [Example 64, 4-(3′-Hydroxymethyl-biphenyl-3-sulfonyl)-5-methylsulfanyl-thiophene-2-carboxamidine]",6 to 23
3,"CSc1sc(C(=N)N)cc1S(=O)(=O)c1cccc(-c2c(C)cccc2CO)c1 [Example 5, 4-(6′-Hydroxymethyl-2′-methyl-biphenyl-3-sulfonyl)-5-methylsulfanyl-thiophene-2-carboxamidine]",6 to 23
4,"CSc1sc(C(=N)N)cc1S(=O)(=O)c1cc(O)cc(-c2ccccc2Cl)c1 [Example 18, 4-(2′-Chloro-5-hydroxy-biphenyl-3-sulfonyl)-5-methylsulfanyl-thiophene-2-carboxamidine trifluoroacetate]",6 to 23
5,"N=C(N)c1cc(S(=O)(=O)c2cccc(-c3cccc(C=O)c3)c2)c(Br)s1 [Example 20, 5-Bromo-4-(3′-formyl-biphenyl-3-sulfonyl)-thiophene-2-carboxamidine trifluoroacetate]",6 to 23
6,"CSc1sc(C(=N)N)cc1S(=O)(=O)c1cccc(-c2cc(Cl)cc(Cl)c2)c1 [Example 46, 4-(3′,5′-Dichloro-biphenyl-3-sulfonyl)-5-methylsulfanyl-thiophene-2-carboxamidine]",6 to 23
7,"CSc1sc(C(=N)N)cc1S(=O)(=O)c1cccc(-c2ccccc2C(C)O)c1 (stereo not shown) [Example 32, 4-[2′-(1-Hydroxy-ethyl)-biphenyl-3-sulfonyl]-5-methylsulfanyl-thiophene-2-carboxamidine trifluoroacetate]",6 to 23
8,"CSc1sc(C(=N)N)cc1S(=O)(=O)c1cccc(-c2c(C)noc2C)c1 [Example 89, 4-[3-(3,5-dimethyl-isoxazol-4-yl)-benzenesulfonyl]-5-methylsulfanyl-thiophene-2-carboxamidine]",6 to 23
9,"CSc1sc(C(=N)N)cc1S(=O)(=O)c1cccc(-c2cnc3ccccc3c2)c1 [Example 73, 5-Methylsulfanyl-4-(3-quinolin-3-yl-benzenesulfonyl)-thiophene-2-carboxamidine]",6 to 23
10,"CSc1sc(C(=N)N)cc1S(=O)(=O)c1cccc(-c2c(C)cc(NC(=N)N)cc2NC(=O)CCCCC(=O)O)c1 [Example 261, 5-[3′-(5-Carbamimidoyl-2-methylsulfanyl-thiophene-3-sulfonyl)-4-guanidino-6-methyl-biphenyl-2-ylcarbamoyl]-pentanoic acid bis-trifluoroacetate]",6 to 23
11,CSc1sc(C(=N)N)cc1S(=O)(=O)c1cccc(-c2cccc(-c3ccccc3)c2O)c1 [Example 2],6 to 23
12,"CSc1sc(C(=N)N)cc1S(=O)(=O)c1cccc(-c2cnccc2C)c1 [Example 9, 4-[3-(4-Methyl-pyridin-3-yl)-benzenesulfonyl]-5-methylsulfanyl-thiophene-2-carboxamidine trifluoroacetate]",6 to 23
13,"CSc1sc(C(=N)N)cc1S(=O)(=O)c1cc(OCc2ccccc2)cc(-c2ccccc2)c1 [Example 17, 4-(5-Benzyloxy-biphenyl-3-sulfonyl)-5-methylsulfanyl-thiophene-2-carboxamidine hydrochloride]",6 to 23
14,"C=CCOc1cc(Br)cc(S(=O)(=O)c2cc(C(=N)N)sc2SC)c1 [Example 12, 4-(3-Allyloxy-5-bromo-benzenesulfonyl)-5-methylsulfanyl-thiophene-2-carboxamidine hydrochloride]",6 to 23
15,"CSc1sc(C(=N)N)cc1S(=O)(=O)c1cccc(-c2ccc(C)c([N+](=O)[O-])c2)c1 [Example 51, 4-(4′-Methyl-3′-nitro-biphenyl-3-sulfonyl)-5-methylsulfanyl-thiophene-2-carboxamidine]",6 to 23
16,"CSc1sc(C(=N)N)cc1S(=O)(=O)c1cccc(-c2c(C)cc(O)cc2C)c1 [Example 224, 4-(4′-Hydroxy-2′,6′-dimethyl-biphenyl-3-sulfonyl)-5-methylsulfanyl-thiophene-2-carboxamidine trifluoroacetate]",6 to 23

row,Compound,Ki [nM]
1,"C=Cc1ccccc1-c1cccc(S(=O)(=O)c2cc(C(=N)N)sc2SC)c1 [Example 87, 5-methylsulfanyl-4-(2′-vinyl-biphenyl-3-sulfonyl)-thiophene-2-carboxamidine]",6 to 23
2,"CSc1sc(C(=N)N)cc1S(=O)(=O)c1cccc(-c2cccc(Cl)c2Cl)c1 [Example 100, 4-(2′,3′-dichloro-biphenyl-3-sulfonyl)-5-methylsulfanyl-thiophene-2-carboxamidine]",6 to 23
3,"CSc1sc(C(=N)N)cc1S(=O)(=O)c1cccc(-c2cc(C(F)(F)F)cc(C(F)(F)F)c2)c1 [Example 48, 4-(3′,5′-Bis-trifluoromethyl-biphenyl-3-sulfonyl)-5-methylsulfanyl-thiophene-2-carboxamidine]",6 to 23
4,"CSc1sc(C(=N)N)cc1S(=O)(=O)c1cccc(-c2c(C)cccc2NC(=O)C(C)S(C)(=O)=O)c1 (stereo not shown) [Example 258, N-[3′-(5-Carbamimidoyl-2-methylsulfanyl-thiophene-3-sulfonyl)-6-methyl-biphenyl-2-yl]-2-methanesulfonyl-propionamide trifluoroacetate]",6 to 23
5,"COc1cc(C)c(-c2cccc(S(=O)(=O)c3cc(C(=N)N)sc3SC)c2)c(NC(=O)CCCCCS(C)(=O)=O)c1 [Example 255, 6-Methanesulfonyl-hexanoic acid[3′-(5-carbamimidoyl-2-methylsulfanyl-thiophene-3-sulfonyl)-4-methoxy-6-methyl-biphenyl-2-yl]-amide trifluoroacetate]",6 to 23
6,"CSc1sc(C(=N)N)cc1S(=O)(=O)c1cccc(-c2ccc(CO)cc2)c1 [Example 83, 4-(4′-hydroxymethyl-biphenyl-3-sulfonyl)-5-methylsulfanyl-thiophene-2-carboxamidine]",6 to 23
7,"CSc1sc(C(=N)N)cc1S(=O)(=O)c1cccc(-c2ccoc2)c1 [Example 72, 4-(3-Furan-3-yl-benzenesulfonyl)-5-methylsulfanyl-thiophene-2-carboxamidine]",6 to 23
8,"CSc1sc(C(=N)N)cc1S(=O)(=O)c1cccc(-c2ccc(N)cc2C)c1 [Example 220, 4-(4′-Amino-2′-methyl-biphenyl-3-sulfonyl)-5-methylsulfanyl-thiophene-2-carboxamidine bis-trifluoroacetate]",6 to 23
9,"CSc1sc(C(=N)N)cc1S(=O)(=O)c1cccc(-c2ccc(C(C)O)cc2)c1 (stereo not shown) [Example 33, 4-[4′-(1-Hydroxy-ethyl)-biphenyl-3-sulfonyl]-5-methylsulfanyl-thiophene-2-carboxamidine Trifluoroacetate]",6 to 23
10,"CSc1sc(C(=N)N)cc1S(=O)(=O)c1cccc(-c2ccc(-c3ccccc3)c(F)c2)c1 [Example 82, 4-(2′-Fluoro-[1,1′;4′,1″]terphenyl-3″-sulfonyl)-5-methylsulfanyl-thiophene-2-carboxamidine]",6 to 23
11,"CCOC(=O)c1cccc(-c2cccc(S(=O)(=O)c3cc(C(=N)N)sc3SC)c2)c1 [Example 102, 3′-(5-carbamimidoyl-2-methylsulfanyl-thiophene-3-sulfonyl)-biphenyl-3-carboxylic acid ethyl ester]",6 to 23
12,"CSc1sc(C(=N)N)cc1S(=O)(=O)c1cccc(-c2ccc(NC(N)=O)cc2C)c1 [Example 228, 5-Methylsulfanyl-4-(2 ′-methyl-4′-ureido-biphenyl-3-sulfonyl)-thiophene-2-carboxamidine trifluoroacetate]",6 to 23
13,"CSc1sc(C(=N)N)cc1S(=O)(=O)c1cccc(-c2ccc(NC(=N)N)cc2C)c1 [Example 314, 4-(4′-Guanidino-2′-methyl-biphenyl-3-sulfonyl)-5-methylsulfanyl-thiophene-2-carboxamidine bis-trifluoroacetate]",6 to 23
14,"CSc1sc(C(=N)N)cc1S(=O)(=O)c1cccc(-c2c(C)cccc2NC(=O)NCCc2c[nH]c3ccccc23)c1 [Example 207, 4-(2′-{3-[2-(1H-Indol-3-yl)-ethyl]-ureido}-6′-methyl-biphenyl-3-sulfonyl)-5-methylsulfanyl-thiophene-2-carboxamidine trifluoroacetate]",6 to 23
15,"CSc1sc(C(=N)N)cc1S(=O)(=O)c1cccc(-c2ccc(C#N)cc2)c1 [Example 84, 4-(4′-cyano-biphenyl-3-sulfonyl)-5-methylsulfanyl-thiophene-2-carboxamidine]",6 to 23
